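Five concentrations, 48 hours, 96-well plates. GI50 marks 50% less growth.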 Active and inactive are the calls of the source. Rule as the data show it: active = GI50 up to about 1.1 µM and inactive = higher.
Assays:
Test in all cases: NCI tumour cell line growth inhibition, 48 h
[1] = system: A498
[2] = system: CAKI-1
[3] = system: COLO 205
[4] = system: HCT-116
[5] = system: HCT-15
[6] = system: HT-29
[7] = system: NCI-H226
[8] = system: NCI-H460
[9] = system: SF-539
[10] = system: SW-620
[11] = system: HL-60
[12] = system: HOP-62
[13] = system: SK-MEL-2
[14] = system: SF-268

| Structure (SMILES) | GI50 [1] | GI50 [2] | GI50 [3] | GI50 [4] | GI50 [5] [µM] | GI50 [6] | GI50 [7] | GI50 [8] | GI50 [9] | GI50 [10] | GI50 [11] | GI50 [12] | GI50 [13] | GI50 [14] |
| --- | --- | --- | --- | --- | --- | --- | --- | --- | --- | --- | --- | --- | --- | --- |
| COC(=O)/C(C#N)=C1\NN=NN1CCCc1ccccc1 | 84.3 µM (inactive) | > 100 µM (inactive) | > 100 µM (inactive) | > 100 µM (inactive) | > 100 | > 100 µM (inactive) | > 100 µM (inactive) | > 100 µM (inactive) | > 100 µM (inactive) | > 100 µM (inactive) |  |  |  |  |
| CC(NC1CCCC[C@@H]1O)c1ccccc1 (stereo partly drawn) |  | 55.3 µM (inactive) | > 100 µM (inactive) | > 100 µM (inactive) | > 100 | > 100 µM (inactive) | > 100 µM (inactive) | > 100 µM (inactive) |  | > 100 µM (inactive) | > 100 µM (inactive) | > 100 µM (inactive) | > 100 µM (inactive) |  |
| CC1(c2cc3c(cc2Br)OCO3)SCCCS1 | 58.5 µM (inactive) |  | 51.4 µM (inactive) | 31.7 µM (inactive) | 38.7 | 32.1 µM (inactive) | 32.4 µM (inactive) | 36.2 µM (inactive) | 36.5 µM (inactive) | 42.1 µM (inactive) | 25.1 µM (inactive) | 31.1 µM (inactive) | 26.2 µM (inactive) | 44.6 µM (inactive) |
| Cc1cccc(C(C)(C)C)c1NC(=O)CCc1nnc(S)[nH]1 | > 100 µM (inactive) | > 100 µM (inactive) | > 100 µM (inactive) | > 100 µM (inactive) | > 100 | > 100 µM (inactive) | > 100 µM (inactive) | > 100 µM (inactive) | > 100 µM (inactive) | > 100 µM (inactive) | > 100 µM (inactive) | > 100 µM (inactive) | > 100 µM (inactive) | > 100 µM (inactive) |
| C=C1CCC23CC(CC[C@@H]2[C@@]12C[C@@H](c1ccoc1)OC2=O)OC3=O (stereo partly drawn) | > 100 µM (inactive) | > 100 µM (inactive) | > 100 µM (inactive) | > 100 µM (inactive) | > 100 | > 100 µM (inactive) | > 100 µM (inactive) | > 100 µM (inactive) | > 100 µM (inactive) | > 100 µM (inactive) | > 100 µM (inactive) | > 100 µM (inactive) | > 100 µM (inactive) | > 100 µM (inactive) |
| N#CC(C#N)=Cc1ccc(C(O)P(=O)(O)O)cc1 (stereo not drawn) | > 100 µM (inactive) | > 100 µM (inactive) | > 100 µM (inactive) | > 100 µM (inactive) | > 100 | > 100 µM (inactive) | > 100 µM (inactive) | > 100 µM (inactive) | > 100 µM (inactive) | > 100 µM (inactive) | 93.5 µM (inactive) | > 100 µM (inactive) | > 100 µM (inactive) | > 100 µM (inactive) |
| Cc1nc2c(o1)/C(=N\c1ccccc1)c1ccccc1/C2=N/c1ccccc1 | > 100 µM (inactive) | > 100 µM (inactive) | 29.1 µM (inactive) | 70.8 µM (inactive) | 16 | 94.2 µM (inactive) |  | 39.4 µM (inactive) | > 100 µM (inactive) | 16.9 µM (inactive) | > 100 µM (inactive) | > 100 µM (inactive) | 61.9 µM (inactive) | > 100 µM (inactive) |
| N#CCCc1nc2ccc(Br)cc2c(=O)n1-c1ccc(O)c([N+](=O)[O-])c1 | 47.3 µM (inactive) | 32.9 µM (inactive) | 22.9 µM (inactive) |  | 18.8 | 27.7 µM (inactive) | 19.9 µM (inactive) | 27.5 µM (inactive) | 18.8 µM (inactive) | 22.1 µM (inactive) | 17.2 µM (inactive) | 36.5 µM (inactive) | 18.6 µM (inactive) | 24.1 µM (inactive) |
| CN(C)/N=C(\CCN1CCCC1)CC(c1ccccc1)c1c(O)c2ccccc2oc1=O (stereo not drawn) |  | > 100 µM (inactive) | > 100 µM (inactive) | > 100 µM (inactive) |  | > 100 µM (inactive) | > 100 µM (inactive) |  | > 100 µM (inactive) | > 100 µM (inactive) | 25.2 µM (inactive) | > 100 µM (inactive) | > 100 µM (inactive) | > 100 µM (inactive) |
